# Experimental data reported in ChEMBL document CHEMBL3232977, “Medicinal chemistry optimization of antiplasmodial imidazopyridazine hits from high throughput screening of a SoftFocus kinase library: part 1” (J Med Chem, 2014).
# What was measured:
# Plasmodium berghei [1] = assay: Antimalarial activity against GFP-transfected Plasmodium berghei ANKA infected in mouse assessed as reduction of parasitemia at 40 mg/kg, po qd for 4 days; type: functional
# Plasmodium berghei [2] = assay: Antimalarial activity against GFP-transfected Plasmodium berghei ANKA infected in mouse assessed as mean survival days at 40 mg/kg, po qd for 4 days; type: functional
# [3] = Apparent Cmax in GFP-transfected Plasmodium berghei ANKA infected mouse at 40 mg/kg, po qd for 4 days; type: ADME, organism-based; parameters: dose 40 mg/kg, route oral; details: in vivo
# physchem [4] = details: 0.01 M HCl, pH 2
# Plasmodium falciparum [5] = assay: microbe, parasite or virus in culture; details: K1
# Plasmodium falciparum [6] = assay: microbe, parasite or virus in culture; details: NF54
# Plasmodium berghei [7] = assay: Antimalarial activity against GFP-transfected Plasmodium berghei ANKA infected in po dosed mouse assessed as reduction of parasitemia administered qd for 4 days; type: functional; details: 96 h
# Plasmodium falciparum [8] = assay: Antimalarial activity against Plasmodium falciparum infected in po dosed SCID mouse assessed as reduction of parasitemia administered qd for 4 days; type: functional; details: 96 h
# [9] = Apparent AUC in GFP-transfected Plasmodium berghei ANKA infected mouse at 40 mg/kg, po qd for 4 days; type: ADME, organism-based; parameters: dose 40 mg/kg, route oral; details: in vivo
# Plasma = assay: Average plasma concentration in GFP-transfected Plasmodium berghei ANKA infected mouse at 40 mg/kg, po qd for 4 days measured after 24 hrs; type: ADME, organism-based; parameters: dose 40 mg/kg, route oral; details: in vivo
# [10] = Apparent half life in Sprague-Dawley rat at 3.6 mg/ml, iv; type: ADME, organism-based; details: in vivo, read-out: t1/2(app) (converted)
# [11] = Plasma total clearance in Sprague-Dawley rat at 3.6 mg/ml, iv; type: ADME, organism-based
# [12] = Volume of distribution at steady state in Sprague-Dawley rat at 3.6 mg/ml, iv; type: ADME, organism-based; details: in vivo, read-out: Vdss
# [13] = AUC (0 to infinity) in Sprague-Dawley rat at 3.6 mg/ml, iv; type: ADME, organism-based; parameters: dose 3.6 mg/ml, route intravenous, time infinity; details: plasma
# [14] = Apparent half life in Sprague-Dawley rat at 3.6 mg/ml, po; type: ADME, organism-based; details: in vivo, read-out: t1/2(app) (converted)
# [15] = AUC (0 to infinity) in Sprague-Dawley rat at 3.6 mg/ml, po; type: ADME, organism-based; parameters: dose 3.6 mg/ml, time infinity, route oral; details: plasma
# [16] = Cmax in Sprague-Dawley rat at 3.6 mg/ml, po; type: ADME, organism-based; parameters: dose 3.6 mg/ml, route oral; details: in vivo
# [17] = Tmax in Sprague-Dawley rat at 3.6 mg/ml, po; type: ADME, organism-based; details: in vivo
# [18] = Oral bioavailability in Sprague-Dawley rat at 3.6 mg/ml; type: ADME, organism-based; details: in vivo
# physchem [19] = details: buffer, pH 2
# [20] = Solubility of the compound in 0.01M HCl at pH 2.5; type: physicochemical
# Plasmodium berghei [21] = details: dose 30 mg/kg; route oral
# Plasmodium berghei [22] = details: dose 30 mg/kg; route oral; remark: listed apart in the source
# Plasmodium falciparum [23] = tested on: Plasmodium falciparum
# [24] = Hepatic extraction ratio in human liver microsomes at 1 uM up to 60 mins by LC-MS analysis; type: ADME; details: read-out: ERH
SMILES,MSD (Plasmodium berghei [1]),MSD (Plasmodium berghei [2]),solubility (physchem [4]),IC50 (Plasmodium falciparum [5]),IC50 (Plasmodium falciparum [6]),further results
CS(=O)(=O)c1ccc(-c2cnc3ccc(-c4cccc(S(N)(=O)=O)c4)nn23)cc1,<40 days,4 days,> 100 µg/mL,0.0044 µM,0.0044 µM,Cmax [3]: 20 nM
CS(=O)(=O)c1ccc(-c2cnc3ccc(-c4cccc(S(C)(=O)=O)c4)nn23)cc1,98 days,7 days,> 100 µg/mL,0.0063 µM,0.0073 µM,ED50 (Plasmodium berghei [7]): 1.4 mg/kg; ED90 (Plasmodium berghei [7]): 15 mg/kg; ED90 (Plasmodium falciparum [8]): 1.5 mg/kg; AUC at 96 h [9]: 27.8 µM·h; Cmax [3]: 2200 nM; Cave (Plasma): 1200 nM; half-life [10]: 7.15 h; clearance [11]: 5.77 mL/min/kg; Vd [12]: 3.01 L/kg; AUC(0-inf) [13]: 24.3 µM·h; half-life [14]: 7.08 h; AUC(0-inf) [15]: 18.9 µM·h; Cmax [16]: 1900 nM; Tmax [17]: 3 h; bioavailability [18]: 77.7%
CS(=O)(=O)c1ccc(-c2cnc3ccc(-c4cccc(C(=O)NCCO)c4)nn23)cc1,–,–,> 100 µg/mL,0.078 µM,0.099 µM,solubility (physchem [19]): 50 µg/mL
CS(=O)(=O)c1ccc(-c2cnc3ccc(-c4cccc(C(=O)N5CCNCC5)c4)nn23)cc1,<40 days,4 days,> 100 µg/mL,0.011 µM,0.015 µM,solubility [20]: > 100 µg/mL; Cmax [3]: 10 nM
"O[C@@H](c1cc(C(F)(F)F)nc2c(C(F)(F)F)cccc12)[C@H]1CCCCN1 (relative stereo) [(S,R)-MEFLOQUINE]",–,–,–,0.0084 µM,0.012 µM,MSD (Plasmodium berghei [21]): 99.9 days; MSD (Plasmodium berghei [22]): 29 days
C[C@H]1[C@H](OC(=O)CCC(=O)O)O[C@@H]2O[C@@]3(C)CC[C@H]4[C@H](C)CC[C@@H]1[C@@]24OO3 [ARTESUNATE],–,–,–,0.003 µM,0.004 µM,MSD (Plasmodium berghei [21]): 99 days; MSD (Plasmodium berghei [22]): 10 days
CC(C)(C)c1cccc(-c2ccc3ncc(-c4ccc(S(C)(=O)=O)cc4)n3n2)c1,–,–,> 100 µg/mL,–,–,IC50 (Plasmodium falciparum [23]): ND(Insoluble)
O=C(c1ccc(-c2ccc3ncc(-c4ccc(C(F)(F)F)cc4)n3n2)cc1)N1CCOCC1,–,–,> 100 µg/mL,0.732 µM,0.763 µM,"hepatic extraction ratio at 1 h, 1 µM [24]: 0.59"
CN1CCN(C(=O)c2cccc(-c3ccc4ncc(-c5ccc(S(C)(=O)=O)cc5)n4n3)c2)CC1,–,–,> 100 µg/mL,0.0055 µM,0.0061 µM,solubility (physchem [19]): 50 µg/mL
Cc1ccc(-c2ccc3ncc(-c4ccc(S(C)(=O)=O)cc4)n3n2)cc1C(F)(F)F,79 days,7 days,> 100 µg/mL,0.026 µM,0.032 µM,–
COc1ccc(-c2ccc3ncc(-c4ccncc4)n3n2)cc1OC,–,–,> 100 µg/mL,0.014 µM,0.016 µM,"hepatic extraction ratio at 1 h, 1 µM [24]: 0.86"
CS(=O)(=O)c1ccc(-c2ccc3ncc(-c4ccc(C(F)(F)F)cc4)n3n2)cc1,–,–,> 100 µg/mL,0.668 µM,0.764 µM,"hepatic extraction ratio at 1 h, 1 µM [24]: < 0.28"
